# Biological target: T1, human GPR39 receptor (Homo sapiens, UniProt O43194)
# T1 construct: PC3 Cells, Expressing the Endogenous Human GPR39 Receptor; endogenous in cells; host or cells: PC3 (human prostate adenocarcinoma) cells
# T1 sequence (O43194 1-453): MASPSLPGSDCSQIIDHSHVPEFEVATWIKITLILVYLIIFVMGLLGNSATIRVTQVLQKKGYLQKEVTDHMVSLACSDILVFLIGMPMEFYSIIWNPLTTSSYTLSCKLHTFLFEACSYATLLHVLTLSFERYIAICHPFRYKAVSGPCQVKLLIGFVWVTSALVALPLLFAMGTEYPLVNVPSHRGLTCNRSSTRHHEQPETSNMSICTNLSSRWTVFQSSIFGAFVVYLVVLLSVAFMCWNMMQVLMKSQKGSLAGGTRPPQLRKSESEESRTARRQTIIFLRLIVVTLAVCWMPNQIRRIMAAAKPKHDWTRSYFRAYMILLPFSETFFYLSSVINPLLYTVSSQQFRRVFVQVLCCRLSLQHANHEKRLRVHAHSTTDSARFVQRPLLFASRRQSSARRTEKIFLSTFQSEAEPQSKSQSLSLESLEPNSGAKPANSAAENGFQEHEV
# Test: Intracellular calcium response (FLIPR, Calcium-6) in PC3 cells, antagonism of agonist C3 (TC-G 1008) at EC90
# Format: cell-based
# Conditions: functional pKi (-Log10Ki) by modified Cheng-Prusoff from IC50; PC3 cells endogenously expressing human GPR39; 30 μM ZnCl2; agonist C3 (TC-G 1008) at EC90 1.5 μM; read-out: fpKi activity
# Method: Measurement of Intracellular Calcium Response in PC3 Cells, Expressing the Endogenous Human GPR39 Receptor
# Human prostate adenocarcinoma (PC3) cells endogenously expressing human GPR39 receptor were seeded into black walls clear-base 384-well plates at a density of 7,500 cells per well in DMEM (Low Glucose) supplemented with 10% heat-inactivated foetal bovine serum and 1% of Pen/Strep and grown overnight at 37° C., 5% CO2. After washing with assay buffer (20 mM HEPES, 137 mM NaCl, 5.4 mM KCl, 10 mM glucose, 0.8 mM MgSO4, 1.3 mM CaCl2), 0.3 mM Na2HPO4, 0.4 mM KH2PO4 4.2 mM NaHCO3, pH 7.4), cells were incubated with Calcium-6 probe (Molecular Devices) at 37° C. for 2 h and then equilibrated at RT for 30 minutes on metal block. The fluorescence was measured in real time by Fluorometric Imaging Plate Reader (FLIPR TETRA, Molecular Devices) (excitation wavelength at 470-495 nm, emission wavelength at 515-575 nm). Compounds of invention were serially diluted in neat DMSO at 1000 fold concentrations and plated into 384-well plates and then 200-fold diluted in assay buffer containing 150 μM ZnCl2 (30 μM final concentration) and 1.1% DMSO (0.32% final concentration). A dual addition FLIPR protocol was used which included a first addition of compounds 200-fold diluted in Assay Buffer containing 150 μM ZnCl2 and 1.1% DMSO and then after 10 minutes a second addition of a submaximal concentration of the hGPR39 receptor agonist, C3 (Tocris, TC-G 1008) at EC90 (concentration producing 90% of the maximal response) value of 1.5 μM. Fluorescence was monitored throughout the run assay. The peak of Ca2+ stimulation (baseline subtracted) was expressed as percentage of the maximal inhibition of the EC90 C3 response and was plotted versus the concentration of test compound. Curve fitting and IC50 estimations are carried out using a four-parameter logistic model using XLfit Software. […] An fpKi less than 5.2 is reported as “+/−”. An fpKi ranging from 5.2 to 5.9 is reported as “+”. An fpKi from 6.0 to 6.5 is reported as “++”. An fpKi from 6.6 to 7.2 is reported as “+++”. An fpKi equal to or greater than 7.3 is reported as “++++”.
row,Ki [nM],Structure (SMILES)
1,≤ 50.1,"Cc1nnc(-c2ccc(C(=O)N3CCC(C(F)(F)F)CC3)c(-c3ccn(C(C)C)n3)c2)[nH]1 [Example 48, [4-(5-methyl-4H-1,2,4-triazol-3-yl)-2-(1-propan-2-ylpyrazol-3-yl)phenyl]-[4-(trifluoromethyl)piperidin-1-yl]methanone]"
2,316 to 1000,"Cc1nnc(-c2ccc(C(=O)N3CCC4(CC3)CC4)c(-c3cnn(C(C)C)c3)c2)[nH]1 [Example 49, 6-azaspiro[2.5]octan-6-yl-[4-(5-methyl-4H-1,2,4-triazol-3-yl)-2-(1-propan-2-ylpyrazol-4-yl)phenyl]methanone]"
3,≤ 50.1,"Cc1nnc(-c2ccc(C(=O)N3CCC4(CC3)CC4)c(-c3ccn(C(C)C)n3)c2)[nH]1 [Example 50, 6-azaspiro[2.5]octan-6-yl-[4-(5-methyl-4H-1,2,4-triazol-3-yl)-2-(1-propan-2-ylpyrazol-3-yl)phenyl]methanone]"
4,≤ 50.1,"Cc1nnc(-c2ccc(C(=O)N3CCC(F)(F)CC3)c(-c3ccn(C(C)C)n3)c2)[nH]1 [Example 51, (4,4-difluoropiperidin-1-yl)-[4-(5-methyl-4H-1,2,4-triazol-3-yl)-2-(1-propan-2-ylpyrazol-3-yl)phenyl]methanone]"
5,≤ 50.1,"Cc1nnc(-c2ccc(C(=O)N3CC4(C3)CC(F)(F)C4)c(-c3ccn(C(C)C)n3)c2)[nH]1 [Example 52, (6,6-difluoro-2-azaspiro[3.3]heptan-2-yl)-[2-(1-isopropylpyrazol-3-yl)-4-(5-methyl-4H-1,2,4-triazol-3-yl)phenyl]methanone]"
6,≤ 50.1,"Cc1nnc(-c2ccc(C(=O)N3CCC(C(F)(F)F)CC3)c(-c3ccn(C(C)(C)C)n3)c2)[nH]1 [Example 53, [2-(1-tert-butylpyrazol-3-yl)-4-(5-methyl-4H-1,2,4-triazol-3-yl)phenyl]-[4-(trifluoromethyl)-1-piperidyl]methanone]"
7,≤ 50.1,"Cc1nnc(-c2ccc(C(=O)N3CCC(F)(F)CC3)c(-c3ccn(C(C)(C)C)n3)c2)[nH]1 [Example 54, [2-(1-tert-butylpyrazol-3-yl)-4-(5-methyl-4H-1,2,4-triazol-3-yl)phenyl]-(4,4-difluoropiperidin-1-yl)methanone]"
8,≤ 50.1,"Cc1nnc(-c2ccc(C(=O)N3CCC(F)(F)CC3)c(-c3ccn(C4CCC4)n3)c2)[nH]1 [Example 55, [2-(1-cyclobutylpyrazol-3-yl)-4-(5-methyl-4H-1,2,4-triazol-3-yl)phenyl]-(4,4-difluoropiperidin-1-yl)methanone]"
9,≤ 50.1,"Cc1nnc(-c2ccc(C(=O)N3CCC(OC(F)(F)F)CC3)c(-c3ccn(C(C)C)n3)c2)[nH]1 [Example 56, 1-[4-(5-methyl-4H-1,2,4-triazol-3-yl)-2-[1-(propan-2-yl)-1H-pyrazol-3-yl]benzoyl]-4-(trifluoromethoxy) piperidine]"
10,≤ 50.1,"COC1CCN(C(=O)c2ccc(-c3nnc(C)[nH]3)cc2-c2ccn(C(C)C)n2)CC1 [Example 58, (4-methoxypiperidin-1-yl)-[4-(5-methyl-4H-1,2,4-triazol-3-yl)-2-(1-propan-2-ylpyrazol-3-yl)phenyl]methanone]"
11,≤ 50.1,"CCn1ccc(-c2cc(-c3nnc(C)[nH]3)ccc2C(=O)N2CCC(F)(F)CC2)n1 [Example 59, (4,4-difluoro-1-piperidyl)-[2-(1-ethylpyrazol-3-yl)-4-(5-methyl-4H-1,2,4-triazol-3-yl)phenyl]methanone]"
12,≤ 50.1,"Cc1nnc(-c2ccc(C(=O)N3CCC(F)(F)CC3)c(-c3ccn(C4COC4)n3)c2)[nH]1 [Example 60, (4,4-difluoro-1-piperidyl)-[4-(5-methyl-4H-1,2,4-triazol-3-yl)-2-[1-(oxetan-3-yl)pyrazol-3-yl]phenyl]methanone]"
13,≤ 50.1,"Cc1nnc(-c2ccc(C(=O)N3CCC(C)CC3)c(-c3ccn(C(C)C)n3)c2)[nH]1 [Example 61, (4-methylpiperidin-1-yl)-[4-(5-methyl-4H-1,2,4-triazol-3-yl)-2-(1-propan-2-ylpyrazol-3-yl)phenyl]methanone]"
14,≤ 50.1,"Cc1nnc(-c2ccc(C(=O)N3CCC(C)CC3)c(-c3nc(C(F)(F)F)cs3)c2)[nH]1 [Example 62, (4-methyl-1-piperidyl)-[4-(5-methyl-4H-1,2,4-triazol-3-yl)-2-[4-(trifluoromethyl)thiazol-2-yl]phenyl]methanone]"
15,≤ 50.1,"Cc1nnc(-c2ccc(C(=O)N3CCC(C)CC3)c(-c3cccc(C4CC4)n3)c2)[nH]1 [Example 63, [2-(6-cyclopropyl-2-pyridyl)-4-(5-methyl-4H-1,2,4-triazol-3-yl)phenyl]-(4-methyl-1-piperidyl)methanone]"
16,≤ 50.1,"Cc1nnc(-c2ccc(C(=O)N3CCC(C)CC3)c(-c3ccn(C(C)(C)C)n3)c2)[nH]1 [Example 64, [2-(1-tert-butylpyrazol-3-yl)-4-(5-methyl-4H-1,2,4-triazol-3-yl)phenyl]-(4-methyl-1-piperidyl)methanone]"
17,≤ 50.1,"Cc1nnc(-c2ccc(C(=O)N3CCC(C)(F)CC3)c(-c3cccc(C4CC4)n3)c2)[nH]1 [Example 65, [2-(6-cyclopropyl-2-pyridyl)-4-(5-methyl-4H-1,2,4-triazol-3-yl)phenyl]-(4-fluoro-4-methyl-1-piperidyl)methanone]"
18,≤ 50.1,"COC1(C)CCN(C(=O)c2ccc(-c3nnc(C)[nH]3)cc2-c2ccn(C(C)(C)C)n2)CC1 [Example 66, [2-(1-tert-butylpyrazol-3-yl)-4-(5-methyl-4H-1,2,4-triazol-3-yl)phenyl]-(4-methoxy-4-methyl-1-piperidyl)methanone]"
19,≤ 50.1,"COC1(C)CCN(C(=O)c2ccc(-c3nnc(C)[nH]3)cc2-c2nc(C(F)(F)F)cs2)CC1 [Example 67, (4-methoxy-4-methyl-1-piperidyl)-[4-(5-methyl-4H-1,2,4-triazol-3-yl)-2-[4-(trifluoromethyl)thiazol-2-yl]phenyl]methanone]"
20,≤ 50.1,"Cc1cc(C(F)(F)F)nc(-c2cc(-c3nnc(C)[nH]3)ccc2C(=O)N2CCC(C(F)(F)F)CC2)n1 [Example 68, [4-(5-methyl-4H-1,2,4-triazol-3-yl)-2-[4-methyl-6-(trifluoromethyl)pyrimidin-2-yl]phenyl]-[4-(trifluoromethyl)-1-piperidyl]methanone]"
21,≤ 50.1,"Cc1nnc(-c2ccc(C(=O)N3CCC(C(F)(F)F)CC3)c(-c3nc(C4CC4)cs3)c2)[nH]1 [Example 69, [2-(4-cyclopropylthiazol-2-yl)-4-(5-methyl-4H-1,2,4-triazol-3-yl)phenyl]-[4-(trifluoromethyl)-1-piperidyl]methanone]"
22,≤ 50.1,"Cc1nnc(-c2ccc(C(=O)N3CCC(C(F)(F)F)CC3)c(-c3cccc(C(C)C)n3)c2)[nH]1 [Example 70, [2-(6-isopropyl-2-pyridyl)-4-(5-methyl-4H-1,2,4-triazol-3-yl)phenyl]-[4-(trifluoromethyl)-1-piperidyl]methanone]"
23,≤ 50.1,"Cc1nnc(-c2ccc(C(=O)N3CCC(C(F)(F)F)CC3)c(-c3cccc(C4CC4)n3)c2)[nH]1 [Example 71, [2-(6-cyclopropylpyridin-2-yl)-4-(5-methyl-4H-1,2,4-triazol-3-yl)phenyl]-[4-(trifluoromethyl)piperidin-1-yl]methanone]"
24,≤ 50.1,"Cc1nnc(-c2ccc(C(=O)N3CCC(C(F)(F)F)CC3)c(-c3nc(C(F)(F)F)cs3)c2)[nH]1 [Example 72, [4-(5-methyl-4H-1,2,4-triazol-3-yl)-2-[4-(trifluoromethyl)-1,3-thiazol-2-yl]phenyl]-[4-(trifluoromethyl)piperidin-1-yl]methanone]"
25,≤ 50.1,"Cc1nnc(-c2ccc(C(=O)N3CCC(C(F)(F)F)CC3)c(-c3cccc(C(F)(F)F)n3)c2)[nH]1 [Example 73, [4-(5-methyl-4H-1,2,4-triazol-3-yl)-2-[6-(trifluoromethyl)pyridin-2-yl]phenyl]-[4-(trifluoromethyl)piperidin-1-yl]methanone]"

# Reference: patent US20250333405A1, “ANTAGONISTS OF GPR39 PROTEIN” (VASOCARDEA, INC., priority 2024, published 2025)
